ED50 data for two compounds are collected here from US4011328A, “Derivatives of pyridine-3-acetic acid, process for their preparation and applications thereof” (SERDEX - Societe d'Etudes, de Recherches, de Diffusion et …, priority 1973, dated 1977).

Common to all, as to type: in vivo
Experiment [1] concerns Turfyl nicotinate (Trafuril)-induced erythema. The experiment can be described thus: Erythema with Turfyl nicotinate (Trafuril), anti-inflammatory power. The conditions noted are these: Cavia porcellus, po; male albino guinea-pigs; buccally 1 hour before test; result at the end of 5 minutes. Here is the method: (§1) b. Anti-inflammatory power.
2. Erythema with Turfyl nicotinate(Trafuril).
The NAINING method is used (Br.jl.Pharmacol. 1963-21-104-12), slightly modified:
The test is carried out on homogeneous groups of six to 12 male albino guinea-pigs weighing 300-400 g, the skin of the back having been carefully plucked the day before.
On the day of the test an antibiogramme disc saturated with an alcoholic solution at 5% of Turfyl nicotinate is applied to the lumbar region for 1 minute.
The result is observed at the end of 5 minutes.
The results are recorded on an "all or nothing" basis, according to which an erythema appears at the place in which the disc was applied.
The treatment is administered buccally 1 hour before the test, with a uniform volume of 1 ml per kg of body weight; the products are placed in homogeneous suspension by the aid of 3% of gum arabic.
The pilot animals are given an equal volume of vehicle.
The percentage of erythema produced in the treated animals is compared with that of the pilot group observed at the same time.

For experiment [2], the system named is carragheen-induced localized oedema. The experiment can be described thus: Acute oedema with carragheen, anti-inflammatory power. The conditions noted are these: Rattus norvegicus, po; male rats; buccally 1 hour before carragheen; oedema 3 hours after carragheen. Here is the method: as §1
1. Acute oedema with carragheen.
(Winster C. A., Risley R. A., Nuss G. W. -- Proc.Soc.Biol. Med.1962,3,544-7).
The injection, under the arch of the rat's foot, of 0.05 ml of an aqueous gel with 1% carragheen produces a localized oedema which can be measured with an electric plethysmometer of the mercury type.
The percentage of inflammation can be calculated by measuring the volume of the […] foot before and 3 hours after the carragheen injection.
The treatment is given buccally, 1 hour before the carragheen.
The test is carried out on homogeneous groups of ten male rats of 180 ± 10 g.
For each animal the oedema is measured as follows: [formula]
When the percentage of oedema is known for the pilot group, the protection observed under the effect of the substance tested is deducted therefrom for the treated groups.

Experiment [3] concerns 2-phenyl-1,4-benzoquinone-induced stretching of the rear feet and torsion of the trunk. The experiment can be described thus: Siegmund test, analgesic power: phenylbenzoquinone-induced stretchings/torsions. The conditions noted are these: Mus musculus, ip; mice; substance given 1 hour before intraperitoneal phenylbenzoquinone; observed 5th-10th minute. Here is the method: The intraperitoneal injection of 0.25 ml of a hydroalcoholic solution of 2-phenyl-1,4-benzoquinone at a concentration of 0.02% produces in mice a particular syndrom characterized by the stretching of the rear feet and the torsion of the trunk.
The test is carried out on homogeneous groups of 20 to 30 mice with an average weight of 20 g.
The substance to be studied is administered to them at the time "0." One hour later the phenylbenzoquinone is administered intraperitoneally. The animals are observed individually for 5 minutes, between the 5th and 10th minute following the injection of the phenyl benzoquinone. The number of stretchings performed by each animal during the observation period is noted.
The percentage of activity of the substance is calculated by comparing the number of torsions performed by the animals and those performed by pilot animals.

`Cc1ccc2c(c1)-c1nc(C)c(CC(=O)O)cc1CO2` [Example 1]: the 50% effective dose (ED50) in experiment [1] was found to be 78 mg/kg; in experiment [2], 16 mg/kg; in experiment [3], 150 mg/kg.

As to `COc1ccc(-c2nc(C)c(CC(=O)O)cc2-c2ccc(Cl)cc2)cc1` [Example 3], the ED50 came to 5.2 mg/kg in experiment [1], 28 mg/kg in experiment [2] and 0.9 mg/kg in experiment [3].
